Columns and labels:
Assay type in all cases: cell-based, human
HUVEC cells [1] = assay: In vitro angiogenesis assay (H2O2-induced tubeformation in matrigel); conditions: 5-FU alone, 6 hours after treatment
Method: (§1) The in vitro angiogenesis assay was a model test used for studying anti-angiogenic nutrient or drugs, and the assay was highly convenient and fast. […] H2O2 was used to induce tubeformation in matrigel to evaluate the effect of Lycogen on the index of angiogenesis. HUVEC cells were dissolved in 10% serum-containing culture media, and then HUVEC cells were seeded into matrigel pre-coated 24-well plates in a density of […] per well. Except for the control group HUVEC cells in all other groups were treated with solvent vehicle, 5-FU, 5-FU plus 10 μM Lycogen, 5-FU plus 30 μM Lycogen, and 5-FU plus 50 μM of Lycogen, respectively. Each assay under the same experimental condition was performed in duplicate and this experiment was repeated twice. Phase contrast photomicrographs were taken by a phase contrast microscope with 100× magnification at 6 hours after the treatment.

HUVEC cells [2] = assay: Cell migration analysis under the angiogenesis assay conditions; conditions: 5-FU alone
Method: as §1
In another example, the effect of Lycogen on cell migration was analyzed under the same conditions of the aforementioned angiogenesis analysis.

EA.hy926 cell line [3] = assay: EA.hy926 cell migration analysis (migration areas); conditions: 25 μg/mL 5-FU, 24 hours
Method: In another example, the effect of Lycogen on cell migration in human umbilical vein endothelial cell line (EA.hy926 cell line) was analyzed. The cell line was treated with different concentrations of Lycogen (0, 2, 5, and 10 μM) or 25 μg/mL 5-FU, and the EA.hy926 cell migration was analyzed 24 hours after treatments to calculate the migration areas.

EA.hy926 cell line [4] = assay: Cancer cell invasion assay (Matrigel, fluorescent microscope); conditions: 25 μg/mL 5-FU, 24 hours, compared to 0 μg/ml group
Method: In one embodiment, the EA.hy926 cell line was used to analyze the ability of Lycogen on inhibiting cancer cell invasion. EA.hy926 cell line was treated with various concentration of Lycogen (0, 2, 5, and 10 μM) or 25 μg/mL 5-FU. Twenty-four hours after treatment, the Matrigel was used to analyze the cell invasion, and fluorescent microscope was used to observe the cancer cell invasion.
Cells were cultured on the plate, which was covered by a semipermeable membrane, to mimic the condition of cell invasion in vivo. The basal membrane was interrupted in invasive tumor cell to invade adjacent tissue. The cell culture plate was scratched by a sterile tip or cotton thread to create an acellular space. The cell lines were treated with different treatments, and then the cell number inside the membrane was counted.

How did the cell tubeformation (HUVEC cells [1]) turn out when `O=c1[nH]cc(F)c(=O)[nH]1` [5-FU] was run?
Its cell tubeformation is “did inhibit”.

And the cell migration (HUVEC cells [2])?
Its cell migration is “did inhibit”.

And the “cancer cell migration (migration areas)” value (EA.hy926 cell line [3])?
Its value is “had the ability of inhibiting cancer cell migration”.

And the invaded cell number (EA.hy926 cell line [4])?
The invaded cell number was “significantly decreased”.

— patent US9675563B2, “Method for adjunctive treatment of cancer metastasis by using lycogen” (ASIA-PACIFIC BIOTECH DEVELOPING, INC., priority 2015, dated 2017)
